Measured values taken from PubChem BioAssay (NCI).
“And” between values parts separate entries of the source, which are not always exact repeats. Identical values can stand only once.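 96-well plates; 48 h exposure; 5 concentrations. Endpoints by linear interpolation between flanking doses. Not reached: highest tested concentration assigned. Abbreviation: GI50, concentration required for 50% inhibition of growth. TGI denotes the concentration required for complete inhibition of growth.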

Assays:
Test in all cases: inhibition of tumour cell growth, NCI panel, 48 h
TK-10 renal = tested on: TK-10 renal
CCRF-CEM leukemia = tested on: CCRF-CEM leukemia
HCT-15 colon = tested on: HCT-15 colon
SNB-75 CNS = tested on: SNB-75 CNS
SK-OV-3 ovarian = tested on: SK-OV-3 ovarian
RPMI-8226 leukemia = tested on: RPMI-8226 leukemia
HL-60(TB) leukemia = tested on: HL-60(TB) leukemia
DU-145 prostate = tested on: DU-145 prostate
SN12C renal = tested on: SN12C renal
SF-268 CNS = tested on: SF-268 CNS

Row | Compound | GI50 (TK-10 renal) | TGI (TK-10 renal) [µM] | GI50 (CCRF-CEM leukemia) | TGI (CCRF-CEM leukemia) [µM] | GI50 (HCT-15 colon) | TGI (HCT-15 colon) [µM] | GI50 (SNB-75 CNS) | TGI (SNB-75 CNS) [µM] | GI50 (SK-OV-3 ovarian) [µM] | GI50 (RPMI-8226 leukemia) | TGI (RPMI-8226 leukemia) [µM] | GI50 (HL-60(TB) leukemia) | TGI (HL-60(TB) leukemia) [µM] | GI50 (DU-145 prostate) | TGI (DU-145 prostate) [µM] | GI50 (SN12C renal) | TGI (SN12C renal) [µM] | GI50 (SF-268 CNS) | TGI (SF-268 CNS) [µM] | TGI (SK-OV-3 ovarian) [µM]
1 | O=C(Nc1ccc(Cl)cc1F)c1cc(Br)ccc1O | 4.15 µM | > 53.1 | 2.37 µM | > 27.6 | 1.06 µM | > 20.8 | 0.468 µM | 2.87 | 0.763 | 0.43 µM | 2.19 | 0.919 µM | 3.77 | 1.89 µM | > 100 | 0.788 µM | 8.58 | 0.745 µM | 9.66 | –
2 | Cc1ccc(N(CSc2ccc(Cl)cc2)CSc2ccc(Cl)cc2)cc1 | 4.88 µM | > 100 | 0.246 µM | 2.5 | 2.12 µM | 15.3 | 1.39 µM | 8.7 | 3.29 | 2.13 µM | 6.46 | 1.65 µM | 3.65 | 2.57 µM | 23 | 0.501 µM | 14.5 | 0.909 µM | 12.4 | 19.3
3 | COC(=O)[C@@H](NC(=O)[C@@H](OC)[C@@H]1Cc2cc3cc(OC4CC(OC5CC(O)C(O)C(C)O5)C(O)C(C)O4)c(C)c(O)c3c(O)c2C(=O)[C@H]1OC1CC(OC2CC(OC3CC(C)(O)C(O)C(C)O3)C(O)C(C)O2)C(O)C(C)O1)C(C)C (some centres not stated) | 0.208 µM | > 32.5 | 0.122 µM | > 32.5 | 0.181 µM | > 32.5 | 0.0849 µM | 1.46 | 0.271 | 0.0918 µM | 0.619 | 0.348 µM | > 32.5 | 0.158 µM | > 32.5 | 0.145 µM | > 32.5 | 0.172 µM | > 32.5 | > 32.5
4 | OCCCCC#Cc1ccccc1C#Cc1cccc(O)c1 | 19.2 µM | 38.2 | 18.8 µM | 48.6 | 13.6 µM | 27 | 16.1 µM | 38.1 | 19.1 | 20.7 µM | 53.7 | 19.4 µM | 41.9 | 17.4 µM | 40.9 | 17.9 µM | 40 | 18.5 µM | 42.6 | 43.3
5 | Nc1ccncc1/C=C1/C(=O)Nc2ccccc21 | 54.7 µM | > 100 | 68.3 µM | > 100 | 36.5 µM | > 100 | 18.5 µM | 63.2 | 46.7 | > 100 µM | > 100 | 14.5 µM | 39.8 | 44.9 µM | > 100 | 18.3 µM | > 100 | 28 µM | > 100 | > 100
6 | CN(C)c1ccc2nc3ccc(=O)cc-3sc2c1 | 13.8 µM | > 77.7 | 0.694 µM | 58.1 | 0.322 µM | > 86 | 11.7 µM | > 100 | 6.02 | 0.199 µM | 53 | 0.77 µM | 3.94 | 1.8 µM | 6.17 | 0.865 µM | > 79 | 5.16 µM | > 100 | > 100
7 | CN1CCc2c(Sc3ccc(C(=O)NO)cc3)c3ccccc3n2C1 | 2.62 µM | 8.19 | 1.87 µM | > 24.9 | 3.62 µM | 13.4 | 0.674 µM | 3.79 | 2.08 | 1.36 µM | 11.1 | 2.95 µM | 8.09 | 2.57 µM | 9.37 | 2.61 µM | 9.78 | 1.85 µM | 4.31 | 5.67
8 | O=C(Nc1cccc(Cl)c1)c1cc2ccccc2cc1O | 5.58 µM and 5.82 µM | > 100 | 5.58 µM and 8.61 µM | > 100 | 2.38 µM and 2.36 µM | > 100 | 1.62 µM and 1.55 µM | > 100 | 1.23 | 1.52 µM and 0.535 µM | – | 3.16 µM and 1.61 µM | – | 3.07 µM and 2.38 µM | > 100 | 2.05 µM and 1.76 µM | > 100 | 2.58 µM and 2.57 µM | > 100 | 4.95
9 | O=C(O)c1c(-c2nccc3ccccc23)[nH]c(-c2ccccc2)c1S(=O)(=O)O | – | > 100 | – | > 100 | – | > 100 | – | > 100 | – | – | > 100 | – | > 100 | – | > 100 | – | > 100 | – | > 100 | > 100
10 | Cc1c(C2Nc3ccccc3C2C)[nH]c2ccccc12 (configuration not stated) | 17.4 µM | 34.2 | 0.801 µM | 46.6 | 0.297 µM | 25.9 | 5.06 µM | 29.8 | 13.1 | 5.29 µM | 52.3 | 13.1 µM | 38.3 | 14.5 µM | 38.7 | 11.4 µM | 24.1 | 12.8 µM | 45.6 | 29.9
